Data set [1] can be described thus: Volatility of perfuming compounds (Tables 4 to 10), with top/middle/bottom note type. The data set is classed as physicochemical. On the procedure:
In some aspects, the first perfume accord comprises perfuming compounds having a volatility ranging from 70,000 to 100 μg/l in air. In some aspects, perfuming compounds having a volatility ranging from 70,000 to 100 μg/l in air are referred to as “top notes”.
In some aspects, the second perfume accord comprises perfuming compounds having a volatility ranging from 99 to 50 μg/l in air. In some aspects, perfuming compounds having a volatility ranging from 99 to 50 μg/l in air are referred to as “middle notes”.
In some aspects, the third perfume accord comprises perfuming compounds having a volatility ranging from 49 to 0.1 μg/l in air. In some aspects, perfuming compounds having a volatility ranging from 49 to 0.1 μg/l in air are referred to as “bottom notes”.
Tables 4 to 10 describe top, middle and bottom note perfuming compounds for watery, green, fruity, citrus, sweet, gourmand and woody notes respectively.

A short description of data set [2]: Odor threshold and odor value of perfuming compounds (Tables 4 to 10). The conditions noted are these: for Odor Threshold (μg/l air): perfuming compounds having a green note.
Setting [3] is: Table 8, perfuming compounds having a sweet note.
The mark [4] stands for this setting: Table 8, perfuming compounds having a sweet note, note type by volatility.
[5] abbreviates: Table 9, perfuming compounds having a gourmand note, note type by volatility.
Setting [6] is: Table 6, perfuming compounds having a fruity note.
The mark [7] stands for this setting: Table 6, perfuming compounds having a fruity note, note type by volatility.
The mark [8] stands for this setting: note type (Top/Middle/Bottom) by volatility, perfuming compounds having a green note.
The mark [9] stands for this setting: perfuming compounds having a green note.
[10] abbreviates: Table 10, perfuming compounds having a woody note, note type by volatility.

Consider nine molecules from patent publication US20240301319A1, “PERFUMING COMPOSITIONS” (FIRMNICH SA, priority 2017, published 2024).

With `CC/C=C\CC1=C(C)CCC1=O`, the Volatility was 56.72 μg/l air in data set [1] (setting [3]) and 56.72 μg/l air in data set [1] (Table 9, gourmand note). The Type entry in data set [1] (setting [4]) and in data set [1] (setting [5]) was “Middle” in each case. Besides, the “Odor Threshold” value in data set [2] (setting [3]) came out at 2.16E−04 μg/l air; in data set [2] (Table 9, gourmand note) it was 2.16E−04 μg/l air. Moreover, the “Odor Value” in data set [2] (setting [3]) was determined as 2.63E+05.

As for `C=CC(C)=CCC=C(C)C`, the Volatility in data set [1] (setting [6]) came to 3480.57 μg/l air. Further, the figures for the Type entry in data set [1] (setting [7]) and in data set [1] (setting [8]) were “TOP (perfuming compounds having a volatility ranging from 70,000 to 100 μg/l in air are referred to as “top notes”)” and “Top”, respectively. Moreover, the “Volatility (μg/l air)” value in data set [1] (setting [9]) is on record as 3480.57 μg/l air. For the same molecule, the “Odor Threshold (μg/l air)” value in data set [2] came out at 2.57E−02 μg/l air.

For `CC(=O)CCC1=C(C)CCCC1(C)C`, the Volatility in data set [1] (setting [3]) is given as 63.61 μg/l air; in data set [1] (Table 10, woody note) it was 63.61 μg/l air. Also, the Type result in data set [1] (setting [4]) and in data set [1] (setting [10]) was “Middle” each time. For the same molecule, the “Odor Threshold” value worked out at 8.51E−03 μg/l air in data set [2] (setting [3]) and 8.51E−03 μg/l air in data set [2] (Table 10, woody note). Also, the “Odor Value” in data set [2] (setting [3]) is listed as 7.48E+03.

For the molecule `COc1cc(C=O)ccc1OC(=O)C(C)C`, the Volatility in data set [1] (setting [6]) amounted to 1.01 μg/l air; in data set [1] (setting [3]), 1.01 μg/l air; in data set [1] (Table 9, gourmand note), 1.01 μg/l air. The Type entry in data set [1] (setting [7]), in data set [1] (setting [4]) and in data set [1] (setting [5]) was “Bottom” each time. In addition, the “Odor Threshold” value in data set [2] (setting [6]) came to 7.33E−05 μg/l air; in data set [2] (setting [3]) it was 7.33E−05 μg/l air; in data set [2] (Table 9, gourmand note), 7.33E−05 μg/l air. For the same molecule, the “Odor Value” in data set [2] (setting [6]) and in data set [2] (setting [3]) was 1.38E+04 throughout.

With `CCOC(=O)CC(C)=O`, the Volatility in data set [1] (setting [6]) is recorded as 2885.67 μg/l air. The Type result in data set [1] (setting [7]) is “TOP (perfuming compounds having a volatility ranging from 70,000 to 100 μg/l in air are referred to as “top notes”)”; in data set [1] (setting [8]) it was “Top”. Moreover, the “Volatility (μg/l air)” value in data set [1] (setting [9]) is listed as 2885.67 μg/l air. The “Odor Threshold (μg/l air)” value in data set [2] was determined as 5.83E−02 μg/l air.

In data set [1] (setting [6]), `CCOC(=O)C12CCCC1C1CCC2C1` (stereo not shown) came in with a Volatility of 111.67 μg/l air. The Type entry in data set [1] (setting [7]) is “TOP (perfuming compounds having a volatility ranging from 70,000 to 100 μg/l in air are referred to as “top notes”)”. Further, the Type result in data set [1] (setting [8]) was “Top”. The “Volatility (μg/l air)” value in data set [1] (setting [9]) stood at 111.67 μg/l air. In data set [2] (setting [6]), the “Odor Threshold” value came out at 6.87E−05 μg/l air and the “Odor Value” is 1.63E+06. Further, the “Odor Threshold (μg/l air)” value in data set [2] is on record as 6.87E−05 μg/l air.

Consider `CC1=CC[C@H](C(C)CC2CCCC2=O)CC1` (stereo partly shown), for which the Volatility in data set [1] (setting [6]) was determined as 2.05 μg/l air; in data set [1] (setting [3]), 2.05 μg/l air; in data set [1] (Table 9, gourmand note) it was 2.05 μg/l air. For the same molecule, the Type entry in data set [1] (setting [7]), in data set [1] (setting [4]) and in data set [1] (setting [5]) was “Bottom” in each case. Further, the “Odor Threshold” value is 1.66E−04 μg/l air in data set [2] (setting [6]); 1.66E−04 μg/l air in data set [2] (setting [3]); 1.66E−04 μg/l air in data set [2] (Table 9, gourmand note). The “Odor Value” in data set [2] (setting [6]) and in data set [2] (setting [3]) was 1.24E+04 throughout.

In the case of `C/C=C/C(=O)C1=C(C)CCCC1(C)C`, the Volatility in data set [1] (setting [6]) is recorded as 81.66 μg/l air; in data set [1] (Table 10, woody note), 81.66 μg/l air. In addition, the Type entry in data set [1] (setting [7]) and in data set [1] (setting [10]) was “Middle” throughout. For the same molecule, the “Odor Threshold” value was found to be 2.18E−04 μg/l air in data set [2] (setting [6]) and 2.18E−04 μg/l air in data set [2] (Table 10, woody note). Further, in data set [2] (setting [6]), the “Odor Value” amounted to 3.75E+05.

For the molecule `C[C@H]1[C@@H]2C[C@H](C[C@@]13C=CC(=O)CC3)C2(C)C`, the Volatility was 4.14 μg/l air in data set [1] (setting [6]) and 4.14 μg/l air in data set [1] (Table 10, woody note). Further, the Type result in data set [1] (setting [7]) and in data set [1] (setting [10]) was “Bottom” throughout. The “Odor Threshold” value in data set [2] (setting [6]) amounted to 6.32E−04 μg/l air; in data set [2] (Table 10, woody note) it was 6.32E−04 μg/l air. Besides, in data set [2] (setting [6]), the “Odor Value” is 6.54E+03.
